Results from publication PMC6222450, “Computer-Aided Studies for Novel Arylhydantoin 1,3,5-Triazine Derivatives as 5-HT6 Serotonin Receptor Ligands with Antidepressive-Like, Anxiolytic and Antiobesity Action In Vivo” (Molecules : A Journal of Synthetic Chemistry and Natural …, 2018).

Legend:
[1] = molecular target: T1, 5-HT2A (Homo sapiens, UniProt P28223); assay: Radioligand binding assay, 5-HT2A, [3H]-Ketanserin; conditions: human receptor stably expressed in HEK-293 cells
T1 construct: expressed in transfected cells; host or cells: HEK-293
T1 sequence (P28223 whole entry): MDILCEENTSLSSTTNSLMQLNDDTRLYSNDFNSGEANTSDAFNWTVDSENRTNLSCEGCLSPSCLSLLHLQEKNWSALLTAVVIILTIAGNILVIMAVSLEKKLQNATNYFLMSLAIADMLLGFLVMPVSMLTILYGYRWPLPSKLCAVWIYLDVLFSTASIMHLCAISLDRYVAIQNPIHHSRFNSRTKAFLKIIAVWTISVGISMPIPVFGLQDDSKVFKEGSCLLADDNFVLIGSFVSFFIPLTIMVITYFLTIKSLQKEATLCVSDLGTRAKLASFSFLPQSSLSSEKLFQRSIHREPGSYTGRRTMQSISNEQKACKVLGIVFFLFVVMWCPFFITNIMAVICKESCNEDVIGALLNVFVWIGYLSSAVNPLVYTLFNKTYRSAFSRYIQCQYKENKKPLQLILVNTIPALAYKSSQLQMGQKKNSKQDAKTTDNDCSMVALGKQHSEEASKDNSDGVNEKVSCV

[2] = molecular target: T2, 5-HT1A (Homo sapiens, UniProt P08908); assay: Radioligand binding assay, 5-HT1A, [3H]-8-OH-DPAT; conditions: human receptor stably expressed in HEK-293 cells
T2 construct: expressed in transfected cells; host or cells: HEK-293
T2 sequence (P08908 1-422): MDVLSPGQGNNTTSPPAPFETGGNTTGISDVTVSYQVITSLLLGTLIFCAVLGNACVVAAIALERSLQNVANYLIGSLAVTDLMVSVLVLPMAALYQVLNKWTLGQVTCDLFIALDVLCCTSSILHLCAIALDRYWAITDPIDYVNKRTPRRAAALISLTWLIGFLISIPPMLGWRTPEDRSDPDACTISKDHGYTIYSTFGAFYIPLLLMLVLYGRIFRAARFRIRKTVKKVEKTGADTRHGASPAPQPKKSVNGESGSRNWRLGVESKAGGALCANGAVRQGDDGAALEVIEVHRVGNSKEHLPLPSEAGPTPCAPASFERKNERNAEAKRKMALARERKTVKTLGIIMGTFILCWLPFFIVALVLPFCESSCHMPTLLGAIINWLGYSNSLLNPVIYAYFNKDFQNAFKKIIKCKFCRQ

[3] = molecular target: T3, dopaminergic D2LR (Homo sapiens, UniProt P14416); assay: Radioligand binding assay, D2LR, [3H]-Raclopride; conditions: human D2L receptor stably expressed in HEK-293 cells; read-out: Ki D2 [3H]-Raclopride
T3 construct: expressed in transfected cells; host or cells: HEK-293
T3 sequence (P14416 whole entry): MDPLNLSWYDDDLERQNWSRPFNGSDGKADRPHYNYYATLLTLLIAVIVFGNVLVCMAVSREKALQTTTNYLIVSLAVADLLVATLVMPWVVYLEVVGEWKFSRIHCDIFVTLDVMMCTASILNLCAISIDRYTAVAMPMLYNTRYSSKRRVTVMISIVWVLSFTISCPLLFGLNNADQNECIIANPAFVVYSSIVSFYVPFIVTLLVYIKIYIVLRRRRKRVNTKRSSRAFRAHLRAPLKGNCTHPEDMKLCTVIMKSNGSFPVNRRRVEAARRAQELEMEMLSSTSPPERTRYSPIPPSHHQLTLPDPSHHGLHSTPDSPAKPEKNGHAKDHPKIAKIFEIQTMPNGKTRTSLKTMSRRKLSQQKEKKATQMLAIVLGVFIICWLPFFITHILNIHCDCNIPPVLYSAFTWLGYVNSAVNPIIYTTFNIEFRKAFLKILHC

[4] = molecular target: T4, 5-HT7bR (Homo sapiens, UniProt P34969); assay: Radioligand binding assay, 5-HT7bR, [3H]-5-CT; conditions: human 5-HT7b receptor stably expressed in HEK-293 cells; read-out: Ki 5-HT7 [3H]-5-CT
T4 construct: expressed in transfected cells; host or cells: HEK-293
T4 sequence (P34969 1-432 limits assumed): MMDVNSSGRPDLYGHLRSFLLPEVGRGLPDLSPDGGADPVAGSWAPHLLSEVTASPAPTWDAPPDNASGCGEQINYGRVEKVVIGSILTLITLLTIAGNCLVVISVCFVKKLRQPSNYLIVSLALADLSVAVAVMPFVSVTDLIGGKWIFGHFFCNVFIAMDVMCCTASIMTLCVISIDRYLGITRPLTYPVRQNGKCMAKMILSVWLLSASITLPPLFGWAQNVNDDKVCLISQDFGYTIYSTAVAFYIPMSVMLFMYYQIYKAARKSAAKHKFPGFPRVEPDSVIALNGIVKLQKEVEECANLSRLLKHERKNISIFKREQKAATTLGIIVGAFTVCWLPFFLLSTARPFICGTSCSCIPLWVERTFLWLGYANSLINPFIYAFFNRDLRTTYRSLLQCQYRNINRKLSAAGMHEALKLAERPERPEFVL

[5] = molecular target: T5, human serotonin 5-HT6R (Homo sapiens, UniProt P50406); assay: Radioligand binding assay, 5-HT6R, [3H]-LSD displacement; conditions: human receptor stably expressed in HEK-293 cells; mean of at least two independent experiments; read-out: Ki 5-HT6 [3H]-LSD
T5 construct: expressed in transfected cells; host or cells: HEK-293
T5 sequence (P50406 whole entry): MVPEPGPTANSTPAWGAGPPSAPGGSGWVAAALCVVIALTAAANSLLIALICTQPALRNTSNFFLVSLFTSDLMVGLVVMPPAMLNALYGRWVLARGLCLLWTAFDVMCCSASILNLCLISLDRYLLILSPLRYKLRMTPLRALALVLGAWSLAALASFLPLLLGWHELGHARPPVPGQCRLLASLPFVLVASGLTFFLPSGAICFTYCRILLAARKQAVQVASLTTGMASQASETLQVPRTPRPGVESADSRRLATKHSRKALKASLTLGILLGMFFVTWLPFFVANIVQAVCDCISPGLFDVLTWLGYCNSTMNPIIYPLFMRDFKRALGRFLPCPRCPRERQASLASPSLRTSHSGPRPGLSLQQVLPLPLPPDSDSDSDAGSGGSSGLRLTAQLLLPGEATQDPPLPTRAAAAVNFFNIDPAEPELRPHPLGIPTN
Procedure: Five selective radioligands were employed (Table 1).
Radioligand binding assays were used to determine the affinity of the synthesized compounds for human serotonin 5-HT6R, which were stably expressed in HEK-293 cells. […] Each compound was tested in triplicate at 7 to 8 different concentrations (10^−11 to 10^−4 M). The inhibition constants (Ki) were calculated using the Cheng–Prusoff equation [40], and the results are expressed as the mean of at least two independent experiments.

Row | SMILES | Ki [1] | Ki [2] | Ki [3] | Ki [4] | Ki [5]
1 | CN1CCN(c2nc(N)nc(CN3C(=O)NC(C)(c4ccc(Cl)cc4Cl)C3=O)n2)CC1 (stereo not shown) [Compound 22, 3-((4-Amino-6-(4-methylpiperazin-1-yl)-1,3,5-triazin-2-yl)methyl)-5-(2,4-dichlorophenyl)-5-methylimidazolidine-2,4-dione] | 10.8 µM | 14 µM | 15.1 µM | 10.1 µM | 0.457 µM
2 | CN1CCN(c2nc(N)nc(CN3C(=O)N(Cc4ccc(F)cc4)C(C)(C)C3=O)n2)CC1 [Compound 13, 1-(4-Fluorobenzyl)-3-((4-amino-6-(4-methylpiperazin-1-yl)-1,3,5-triazin-2-yl)methyl)-5,5-dimethylimidazolidine-2,4-dione] | 3.55 µM | 48.4 µM | 6.56 µM | 0.953 µM | 0.663 µM
3 | CN1CCN(c2nc(N)nc(CN3C(=O)N(Cc4cccc(F)c4)C(C)(C)C3=O)n2)CC1 [Compound 14, 1-(3-Fluorobenzyl)-3-((4-amino-6-(4-methylpiperazin-1-yl)-1,3,5-triazin-2-yl)methyl)-5,5-dimethylimidazolidine-2,4-dione] | 0.239 µM | 37.1 µM | 6.58 µM | 0.088 µM | 0.447 µM
4 | CN1CCN(c2nc(N)nc(CN3C(=O)N(Cc4cccc(Cl)c4)C(C)(C)C3=O)n2)CC1 [Compound 10, 1-(3-Chlorobenzyl)-3-((4-amino-6-(4-methylpiperazin-1-yl)-1,3,5-triazin-2-yl)methyl)-5,5-dimethylimidazolidine-2,4-dione] | 0.328 µM | 13.6 µM | 4.63 µM | 0.159 µM | 0.271 µM
5 | CN1CCN(c2nc(N)nc(CN3C(=O)N(Cc4cccc(Br)c4)C(C)(C)C3=O)n2)CC1 [Compound 15, 1-(3-Bromobenzyl)-3-((4-amino-6-(4-methylpiperazin-1-yl)-1,3,5-triazin-2-yl)methyl)-5,5-dimethylimidazolidine-2,4-dione] | 1.33 µM | 12.9 µM | 6.68 µM | 0.571 µM | 0.57 µM
6 | CN1CCN(c2nc(N)nc(CN3C(=O)NC(C)(c4cc(Cl)ccc4Cl)C3=O)n2)CC1 (stereo not shown) [Compound 21, 3-((4-Amino-6-(4-methylpiperazin-1-yl)-1,3,5-triazin-2-yl)methyl)-5-(2,5-dichlorophenyl)-5-methylimidazolidine-2,4-dione] | 11.1 µM | 26.2 µM | 11.5 µM | 1.56 µM | 0.403 µM
7 | CN1CCN(c2nc(N)nc(CN3C(=O)N(Cc4ccccc4)C(C)(C)C3=O)n2)CC1 [Compound 9, 3-((4-Amino-6-(4-methylpiperazin-1-yl)-1,3,5-triazin-2-yl)methyl)-1-benzyl-5,5-dimethylimidazolidine-2,4-dione] | 1.6 µM | 42.6 µM | 8.78 µM | 0.35 µM | 0.592 µM
8 | Cc1ccc(C2(C)NC(=O)N(Cc3nc(N)nc(N4CCN(C)CC4)n3)C2=O)cc1 (stereo not shown) [Compound 24, 3-((4-Amino-6-(4-methylpiperazin-1-yl)-1,3,5-triazin-2-yl)methyl)-5-(4-methylphenyl)-5-methylimidazolidine-2,4-dione] | 24.4 µM | 22.3 µM | 23.3 µM | 0.564 µM | 0.667 µM
9 | CN1CCN(c2nc(N)nc(CN3C(=O)NC(C)(c4cccc(Cl)c4)C3=O)n2)CC1 (stereo not shown) [Compound 20, 3-((4-Amino-6-(4-methylpiperazin-1-yl)-1,3,5-triazin-2-yl)methyl)-5-(3-chlorophenyl)-5-methylimidazolidine-2,4-dione] | 7.4 µM | 4.1 µM | 16.8 µM | 0.791 µM | 0.418 µM
10 | CN1CCN(c2nc(N)nc(CN3C(=O)N(Cc4ccc(Cl)cc4Cl)C(C)(C)C3=O)n2)CC1 [Compound 12, 1-(2,4-Dichlorobenzyl)-3-((4-amino-6-(4-methylpiperazin-1-yl)-1,3,5-triazin-2-yl)methyl)-5,5-dimethylimidazolidine-2,4-dione] | 3.59 µM | 7.69 µM | 0.681 µM | 1.12 µM | 0.205 µM
11 | COc1cccc(CN2C(=O)N(Cc3nc(N)nc(N4CCN(C)CC4)n3)C(=O)C2(C)C)c1 [Compound 16, 1-(3-Methoxybenzyl)-3-((4-amino-6-(4-methylpiperazin-1-yl)-1,3,5-triazin-2-yl)methyl)-5,5-dimethylimidazolidine-2,4-dione] | 2.04 µM | 23.9 µM | 15.5 µM | 3.59 µM | 0.692 µM
12 | CN1CCN(c2nc(N)nc(CN3C(=O)NC(C)(C)C3=O)n2)CC1 [Compound 4] | – | – | 22.3 µM | 35.8 µM | 0.427 µM
13 | CN1CCN(c2nc(N)nc(CN3C(=O)N(Cc4cc(Cl)ccc4Cl)C(C)(C)C3=O)n2)CC1 [Compound 11, 1-(2,5-Dichlorobenzyl)-3-((4-amino-6-(4-methylpiperazin-1-yl)-1,3,5-triazin-2-yl)methyl)-5,5-dimethylimidazolidine-2,4-dione] | 0.809 µM | 4.16 µM | 2.87 µM | 0.279 µM | 0.597 µM
14 | CN1CCN(c2nc(N)nc(CN3C(=O)NC(C)(c4ccccc4)C3=O)n2)CC1 (stereo not shown) [Compound 19, 3-((4-Amino-6-(4-methylpiperazin-1-yl)-1,3,5-triazin-2-yl)methyl)-5-methyl-5-phenylimidazolidine-2,4-dione] | 12.1 µM | 31.6 µM | 41 µM | 1.1 µM | 0.726 µM
15 | Cc1cccc(CN2C(=O)N(Cc3nc(N)nc(N4CCN(C)CC4)n3)C(=O)C2(C)C)c1 [Compound 17, 1-(3-Methylbenzyl)-3-((4-amino-6-(4-methylpiperazin-1-yl)-1,3,5-triazin-2-yl)methyl)-5,5-dimethylimidazolidine-2,4-dione] | 0.817 µM | 17 µM | 5.21 µM | 0.42 µM | 0.895 µM
